Data reported in patent publication US7326809B2, “Salts of 4- or 5-aminosalicylic acid” (Antibe Therapeutics Inc., priority 2004, dated 2008).
Where a name gives a salt, the structure may show the parent alone. Read-outs that look alike come from different tables or passages of the source.

Experiments:
[1] = test system: TNBS-induced colitis; assay: TNBS-induced colitis in rats: edema, MPO activity, body weight; format: in vivo, male, Wistar rats; conditions: every 12 h for 4 days, salt at 50% of the dose equimolar to mesalamine 50 mg/kg
Experimental: Colitis was induced in male, Wistar rats by intracolonic administration of TNBS, as outlined in Wallace et al. (1990), Am J Physiol. 258: G527-G534, incorporated herein by reference. Briefly, beginning 1 h later and continuing at 12 h intervals for 4 days, the rats were treated with vehicle (1% CMC), mesalamine (50 mg/kg), L-arginine (equimolar) or L-arginine salt of mesalamine (50% of the equimolar dose). Changes in body weight were recorded, as were incidences of mortality. At the end of the study, the colon was excised and the thickness of the bowel wall was measured with digital callipers, as an index of edema. Also, a sample of tissue was processed for measurement of myeloperoxidase (MPO) activity, as an index of granulocyte infiltration.

[2] = In vitro anti-oxidant assay with a coloured, stable free radical; format: biochemical; conditions: for % Free Radical Scavenging: in ethanol, means of quadruplicate experiments; for IC50: concentration that reduced the levels of the free radical by 50%, read-out: 50% Inhibitory Concentrations IC50
Experimental: One of the mechanisms through which mesalamine is thought to provide benefit in the treatment of inflammatory bowel disease is through scavenging of free radicals. Therefore, the anti-oxidant activity of mesalamine was compared to that of L-arginine salt of mesalamine and L-arginine. Anti-oxidant activity of the test drugs was measured in an in vitro assay that employs a coloured, stable free radical as outlined in Vaananen, P. M. et al. (1992) Inflammation 16: 227-240 and Smith, R. C. et al. (1987) Free Rad. Biol. Med. 3: 251-257, both incorporated herein by reference. Drugs with anti-oxidant activity reduce this reagent resulting in a change in colour, which can be detected spectrophotometrically. A range of concentrations of L-arginine salt of mesalamine, mesalamine and L-arginine, all prepared in ethanol, were tested and the concentration that reduced the levels of the free radical by 50% were calculated.

[3] = test system: TNBS-induced colitis; assay: TNBS-induced colitis in mice: disease activity score and MPO activity; format: in vivo, Balb/c mice; conditions: oral every 12 h for 5 days, dose equimolar to mesalamine 50 mg/kg
Experimental: A standard experimental animal model of colitis induced by intracolonic administration of 2,4,6-trinitrobenzene sulfonic acid (TNBS) to mice is used in the following example. A detailed description of this model has been published (Santucci et al. (2003) Gastroenterology 124:1381-94) and is incorporated herein by reference. Briefly, 6-8 week old Balb/c mice were given TNBS intracolonically at a dose of 1.5 mg in 0.1 mL of 30% ethanol. The mice were randomized to the various treatment groups (n=6 per group). Beginning one hour later and continuing every 12 h for 5 days, the mice were treated orally with vehicle (1% carboxymethylcellulose (CMC)), mesalamine (50 mg/kg) or with an equimolar dose of L-arginine salt of mesalamine.
The mice were evaluated (blindly) on the final day of the study for the presence of diarrhea and fecal occult blood, and their body weights were measured. […] The mice were then sacrificed and a sample of the colon was excised for measurement of myeloperoxidase (MPO) activity, an indicia for granulocyte infiltration.

[4] = test system: TNF-α, IFN-γ, IL-1, IL-2, IL-10, IL-12 p40, RANTES, COX-1, COX-2, eNOS, iNOS mRNA; assay: mRNA expression (RT-PCR) of inflammatory cytokines and mediators in colon, TNBS-induced colitis in mice; format: in vivo; conditions: equimolar to mesalamine 50 mg/kg
Experimental: The same model was used as described above. In this example, the effects of mesalamine (50 mg/kg) were compared to those of equimolar doses of L-arginine salt of mesalamine. Tissues were processed for measurement of a number of genes for inflammatory cytokines and other mediators.
In particular, mRNA expression in mice of tumour necrosis factor-alpha (TNF-α), interferon gamma (IFN-γ), colonic interleukin (IL)-1, IL-2, IL-10, IL-12 p40, RANTES, cyclooxygenase (COX)-1, COX-2, constitutive endothelial nitric oxide synthase (eNOS), and inducible NOS (iNOS) was measured as described in Wallace et al. (1999) Gastroenterology 117: 557-566, incorporated herein by reference.
Briefly, reverse transcription-polymerase chain reaction (RT-PCR) was used to detect and quantify mRNA of the particular cytokine/chemokine/enzyme. Glyceraldehyde-3-phosphate dehydrogenase (GAPDH) was used as the “housekeeping gene” for mRNA expression (i.e., as an internal control). For each sample, the ratio of the amplification of the target gene to the amplification of GAPDH (expression of each is measured by performing densitometry on gels) was obtained. Comparisons were then made between the relative amplification (expression) of the target gene in tissues for the treatment groups in comparison to the expression in tissues from healthy controls. Thus, the data shown in the following FIGS. represent the relative expression of the target gene (normalized to GAPDH expression) as a ratio to the expression in healthy controls.

[5] = following oral ingestion of 500 mg; cited from earlier work

SMILES | % Free Radical Scavenging ([2]; 0.03 mM) | % Free Radical Scavenging ([2]; 0.1 mM) | % Free Radical Scavenging ([2]; 0.3 mM) | % Free Radical Scavenging ([2]; 1 mM) | % Free Radical Scavenging ([2]; 3 mM) | % Free Radical Scavenging ([2]; 10 mM) | IC50 [2] | other results
N=C(N)NCCC[C@H](N)C(=O)O.Nc1ccc(O)c(C(=O)O)c1 [L-arginine salt of mesalamine, L-arginine salt of 5-aminosalicylic acid] | 5.2% | 23.9% | 57.7% | 96.3% | 100% | 100% |  | body weight loss [1]: superior to both mesalamine and L-arginine; colitis-associated edema (thickness of the bowel wall) [1]: superior to both mesalamine and L-arginine; myeloperoxidase (MPO) activity (granulocyte infiltration) [1]: superior to both mesalamine and L-arginine; anti-oxidant potency relative to mesalamine ([2]; from IC50 values): about three-times more potent; myeloperoxidase (MPO) activity (granulocyte infiltration) ([3]; colon sample): superior to mesalamine alone in reducing MPO activity; disease activity score ([3]; 0 to 4 scale): superior to mesalamine alone in reducing the disease; COX-1 mRNA expression ([4]; colonic): suppressed; COX-2 mRNA expression ([4]; colonic): suppressed; eNOS mRNA expression ([4]; colonic): suppressed; iNOS mRNA expression ([4]; colonic): suppressed; IL-10 mRNA expression [4]: did not suppress; expression of mRNA for several pro-inflammatory cytokines and chemokines [4]: suppressed; mRNA expression of inflammatory cytokines and other mediators, every endpoint (FIGS. 3 to 8) ([4]; normalized to GAPDH, ratio to healthy controls): superior to mesalamine in every endpoint
N=C(N)NCCC[C@H](N)C(=O)O [L-arginine] | 0% | 0% | 0% | 0% | 0% | 0% | > 10 mM | anti-oxidant activity ([2]; concentrations of up to 10 mM): did not exhibit any anti-oxidant activity; anti-oxidant activity (in words) ([2]; summary statement): very little anti-oxidant activity; free radical scavenging effects (in words) ([2]; summary statement): no free radical scavenging effects
Nc1ccc(O)c(C(=O)O)c1 [L-arginine salt of mesalamine, L-arginine salt of 5-aminosalicylic acid] |  |  |  |  |  |  |  | IC50 ([2]; listed as ATB-428): 0.407 mM
Nc1ccc(O)c(C(=O)O)c1 [Mesalamine, 5-aminosalicylic acid] | 2.2% |  | 23.6% | 50.3% | 96.1% | 100% | 1.25 mM | luminal concentrations of mesalamine in the colon [5]: 1 mM
